# Experimental data reported in patent US6653339B2, “Method of treating irritable bowel syndrome” (Pfizer Inc., priority 2001, dated 2003).
# Tests used:
# irritable bowel syndrome [1] = experiment: Clinical Study 2, controlled (slow) release darifenacin once daily vs placebo in irritable bowel syndrome; assay type: in vivo, human; conditions: 12 weeks; for Constipation % of patients reporting AEs / Dry Mouth % of patients reporting AEs / Global Rating % Reduction from baseline / Loose Stool % Reduction from baseline / Pain Score % Reduction from baseline / Total AE % of patients reporting AEs / Urgency % Reduction from baseline / Vision % of patients reporting AEs: uncorrected
# Text: (§1) The invention may be illustrated by the following clinical studies wherein the treatment of irritable bowel syndrome using darifenacin administered as a once-daily controlled (slow) release formulation in accordance with the prior art is compared with treatment using darifenacin administered as a thrice daily immediate release formulation in accordance with the present invention. Specifically, Clinical Studies 1 and 2 used controlled (slow) release formulations of darifenacin administered once daily (od) and Clinical Study 3 used an immediate release formulation of darifenacin administered three times daily (tid).
# (§2) During each clinical study, four efficacy measures of irritable bowel syndrome severity were measured, viz. ‘Pain Score’ (Average daily pain score, a composite of severity and number of days of pain), ‘Loose Stool’ (Number of days on which loose or watery stool occurred), ‘Urgency’ (Number of days on which urgency occured) and so-called ‘Global Rating’ (Patient rating of their condition taking into account all symptoms, 0=no problems). Adverse events (AE) such as constipation, dry mouth and visual abnormalities were also recorded.
# Clinical Study 2 was a multi-centre, double-blind, randomised, placebo-controlled parallel group study in which four dose strengths of darifenacin of 3.75 mg, 7.5 mg, 15 mg and 30 mg dosed od were compared with placebo. Treatment lasted 12 weeks following a 2-week run-in period.
# (§3) The controlled (slow) release dosage forms of darifenacin used in Clinical Studies 1 and 2 were 3.75 mg, 7.5 mg, 15.0 mg and 30.0 mg tablets having the following compositions: […]
# irritable bowel syndrome [2] = experiment: Clinical Study 1, controlled (slow) release darifenacin once daily vs placebo in irritable bowel syndrome; assay type: in vivo, human; conditions: for Constipation % of patients reporting AEs corrected for placebo / Dry Mouth % of patients reporting AEs corrected for placebo / Global Rating % Reduction from baseline corrected for placebo / Loose Stool % Reduction from baseline corrected for placebo / Pain Score % Reduction from baseline corrected for placebo / Total AE % of patients reporting AEs corrected for placebo / Urgency % Reduction from baseline corrected for placebo / Vision % of patients reporting AEs corrected for placebo / Constipation % of patients reporting AEs / Dry Mouth % of patients reporting AEs / Global Rating % Reduction from baseline / Loose Stool % Reduction from baseline / Pain Score % Reduction from baseline / Total AE % of patients reporting AEs / Urgency % Reduction from baseline / Vision % of patients reporting AEs: Clinical Study 1, 12 weeks; for Constipation % of patients reporting AEs / Dry Mouth % of patients reporting AEs / Global Rating % Reduction from baseline / Loose Stool % Reduction from baseline / Pain Score % Reduction from baseline / Total AE % of patients reporting AEs / Urgency % Reduction from baseline / Vision % of patients reporting AEs: uncorrected
# Text: as §1, §2
# Clinical Study 1 was a multi-centre, double-blind, randomised, placebo-controlled parallel group study in which three dose strengths of darifenacin of 3.75 mg, 7.5 mg and 15 mg dosed od were compared with placebo. Treatment lasted 12 weeks following a 2-week run-in period.
# as §3
# [3] = controlled release tablet 3.75 mg od
# [4] = controlled release tablet 7.5 mg od
# [5] = controlled release tablet 15 mg od
# [6] = controlled release tablet 30 mg od
# [7] = both controlled release od studies (Clinical Studies 1 and 2)
smiles,measurement,setting,value
NC(=O)C(c1ccccc1)(c1ccccc1)[C@@H]1CCN(CCc2ccc3c(c2)CCO3)C1 [darifenacin],Constipation % of patients reporting AEs corrected for placebo,irritable bowel syndrome [1]; [3],4.5%
same,Dry Mouth % of patients reporting AEs corrected for placebo,irritable bowel syndrome [1]; [3],4.4%
same,Global Rating % Reduction from baseline corrected for placebo,irritable bowel syndrome [1]; [3],−7%
same,Loose Stool % Reduction from baseline corrected for placebo,irritable bowel syndrome [1]; [3],8%
same,Pain Score % Reduction from baseline corrected for placebo,irritable bowel syndrome [1]; [3],−9%
same,Total AE % of patients reporting AEs corrected for placebo,irritable bowel syndrome [1]; [3],6%
same,Urgency % Reduction from baseline corrected for placebo,irritable bowel syndrome [1]; [3],−1%
same,Vision % of patients reporting AEs corrected for placebo,irritable bowel syndrome [1]; [3],0.7%
same,Constipation % of patients reporting AEs,irritable bowel syndrome [1]; [3],6.4%
same,Dry Mouth % of patients reporting AEs,irritable bowel syndrome [1]; [3],9.6%
same,Global Rating % Reduction from baseline,irritable bowel syndrome [1]; [3],21%
same,Loose Stool % Reduction from baseline,irritable bowel syndrome [1]; [3],31%
same,Pain Score % Reduction from baseline,irritable bowel syndrome [1]; [3],28%
same,Total AE % of patients reporting AEs,irritable bowel syndrome [1]; [3],22%
same,Urgency % Reduction from baseline,irritable bowel syndrome [1]; [3],24%
same,Vision % of patients reporting AEs,irritable bowel syndrome [1]; [3],1.3%
same,Constipation % of patients reporting AEs corrected for placebo,irritable bowel syndrome [1]; [4],5.9%
same,Dry Mouth % of patients reporting AEs corrected for placebo,irritable bowel syndrome [1]; [4],4.4%
same,Global Rating % Reduction from baseline corrected for placebo,irritable bowel syndrome [1]; [4],−1%
same,Loose Stool % Reduction from baseline corrected for placebo,irritable bowel syndrome [1]; [4],16%
same,Pain Score % Reduction from baseline corrected for placebo,irritable bowel syndrome [1]; [4],0%
same,Total AE % of patients reporting AEs corrected for placebo,irritable bowel syndrome [1]; [4],6%
same,Urgency % Reduction from baseline corrected for placebo,irritable bowel syndrome [1]; [4],8%
same,Vision % of patients reporting AEs corrected for placebo,irritable bowel syndrome [1]; [4],0.6%
same,Constipation % of patients reporting AEs,irritable bowel syndrome [1]; [4],7.8%
same,Dry Mouth % of patients reporting AEs,irritable bowel syndrome [1]; [4],9.6%
same,Global Rating % Reduction from baseline,irritable bowel syndrome [1]; [4],27%
same,Loose Stool % Reduction from baseline,irritable bowel syndrome [1]; [4],39%
same,Pain Score % Reduction from baseline,irritable bowel syndrome [1]; [4],37%
same,Total AE % of patients reporting AEs,irritable bowel syndrome [1]; [4],22%
same,Urgency % Reduction from baseline,irritable bowel syndrome [1]; [4],33%
same,Vision % of patients reporting AEs,irritable bowel syndrome [1]; [4],1.2%
same,Constipation % of patients reporting AEs corrected for placebo,irritable bowel syndrome [1]; [5],11.6%
same,Dry Mouth % of patients reporting AEs corrected for placebo,irritable bowel syndrome [1]; [5],19.8%
same,Global Rating % Reduction from baseline corrected for placebo,irritable bowel syndrome [1]; [5],4%
same,Loose Stool % Reduction from baseline corrected for placebo,irritable bowel syndrome [1]; [5],30%
same,Pain Score % Reduction from baseline corrected for placebo,irritable bowel syndrome [1]; [5],2%
same,Total AE % of patients reporting AEs corrected for placebo,irritable bowel syndrome [1]; [5],15%
same,Urgency % Reduction from baseline corrected for placebo,irritable bowel syndrome [1]; [5],22%
same,Vision % of patients reporting AEs corrected for placebo,irritable bowel syndrome [1]; [5],2.6%
same,Constipation % of patients reporting AEs,irritable bowel syndrome [1]; [5],13.5%
same,Dry Mouth % of patients reporting AEs,irritable bowel syndrome [1]; [5],25%
same,Global Rating % Reduction from baseline,irritable bowel syndrome [1]; [5],32%
same,Loose Stool % Reduction from baseline,irritable bowel syndrome [1]; [5],53%
same,Pain Score % Reduction from baseline,irritable bowel syndrome [1]; [5],39%
same,Total AE % of patients reporting AEs,irritable bowel syndrome [1]; [5],41%
same,Urgency % Reduction from baseline,irritable bowel syndrome [1]; [5],47%
same,Vision % of patients reporting AEs,irritable bowel syndrome [1]; [5],3.2%
same,Constipation % of patients reporting AEs corrected for placebo,irritable bowel syndrome [1]; [6],15.1%
same,Dry Mouth % of patients reporting AEs corrected for placebo,irritable bowel syndrome [1]; [6],30.7%
same,Global Rating % Reduction from baseline corrected for placebo,irritable bowel syndrome [1]; [6],8%
same,Loose Stool % Reduction from baseline corrected for placebo,irritable bowel syndrome [1]; [6],27%
same,Pain Score % Reduction from baseline corrected for placebo,irritable bowel syndrome [1]; [6],3%
same,Total AE % of patients reporting AEs corrected for placebo,irritable bowel syndrome [1]; [6],34%
same,Urgency % Reduction from baseline corrected for placebo,irritable bowel syndrome [1]; [6],26%
same,Vision % of patients reporting AEs corrected for placebo,irritable bowel syndrome [1]; [6],4.6%
same,Constipation % of patients reporting AEs,irritable bowel syndrome [1]; [6],17%
same,Dry Mouth % of patients reporting AEs,irritable bowel syndrome [1]; [6],35.9%
same,Global Rating % Reduction from baseline,irritable bowel syndrome [1]; [6],36%
same,Loose Stool % Reduction from baseline,irritable bowel syndrome [1]; [6],50%
same,Pain Score % Reduction from baseline,irritable bowel syndrome [1]; [6],40%
same,Total AE % of patients reporting AEs,irritable bowel syndrome [1]; [6],50%
same,Urgency % Reduction from baseline,irritable bowel syndrome [1]; [6],41%
same,Vision % of patients reporting AEs,irritable bowel syndrome [1]; [6],5.2%
same,Constipation % of patients reporting AEs corrected for placebo,irritable bowel syndrome [2]; [3],1.4%
same,Dry Mouth % of patients reporting AEs corrected for placebo,irritable bowel syndrome [2]; [3],2.5%
same,Global Rating % Reduction from baseline corrected for placebo,irritable bowel syndrome [2]; [3],−2%
same,Loose Stool % Reduction from baseline corrected for placebo,irritable bowel syndrome [2]; [3],4%
same,Pain Score % Reduction from baseline corrected for placebo,irritable bowel syndrome [2]; [3],−3%
same,Total AE % of patients reporting AEs corrected for placebo,irritable bowel syndrome [2]; [3],2%
same,Urgency % Reduction from baseline corrected for placebo,irritable bowel syndrome [2]; [3],18%
same,Vision % of patients reporting AEs corrected for placebo,irritable bowel syndrome [2]; [3],5.4%
same,Constipation % of patients reporting AEs,irritable bowel syndrome [2]; [3],7.2%
same,Dry Mouth % of patients reporting AEs,irritable bowel syndrome [2]; [3],10.2%
same,Global Rating % Reduction from baseline,irritable bowel syndrome [2]; [3],27%
same,Loose Stool % Reduction from baseline,irritable bowel syndrome [2]; [3],37%
same,Pain Score % Reduction from baseline,irritable bowel syndrome [2]; [3],35%
same,Total AE % of patients reporting AEs,irritable bowel syndrome [2]; [3],27%
same,Urgency % Reduction from baseline,irritable bowel syndrome [2]; [3],41%
same,Vision % of patients reporting AEs,irritable bowel syndrome [2]; [3],5.4%
same,Constipation % of patients reporting AEs corrected for placebo,irritable bowel syndrome [2]; [4],4.7%
same,Dry Mouth % of patients reporting AEs corrected for placebo,irritable bowel syndrome [2]; [4],6.5%
same,Global Rating % Reduction from baseline corrected for placebo,irritable bowel syndrome [2]; [4],0%
same,Loose Stool % Reduction from baseline corrected for placebo,irritable bowel syndrome [2]; [4],4%
same,Pain Score % Reduction from baseline corrected for placebo,irritable bowel syndrome [2]; [4],5%
same,Total AE % of patients reporting AEs corrected for placebo,irritable bowel syndrome [2]; [4],3%
same,Urgency % Reduction from baseline corrected for placebo,irritable bowel syndrome [2]; [4],17%
same,Vision % of patients reporting AEs corrected for placebo,irritable bowel syndrome [2]; [4],4.3%
same,Constipation % of patients reporting AEs,irritable bowel syndrome [2]; [4],10.5%
same,Dry Mouth % of patients reporting AEs,irritable bowel syndrome [2]; [4],14.2%
same,Global Rating % Reduction from baseline,irritable bowel syndrome [2]; [4],29%
same,Loose Stool % Reduction from baseline,irritable bowel syndrome [2]; [4],37%
same,Pain Score % Reduction from baseline,irritable bowel syndrome [2]; [4],43%
same,Total AE % of patients reporting AEs,irritable bowel syndrome [2]; [4],28%
same,Urgency % Reduction from baseline,irritable bowel syndrome [2]; [4],40%
same,Vision % of patients reporting AEs,irritable bowel syndrome [2]; [4],4.3%
same,Constipation % of patients reporting AEs corrected for placebo,irritable bowel syndrome [2]; [5],9.4%
same,Dry Mouth % of patients reporting AEs corrected for placebo,irritable bowel syndrome [2]; [5],20.8%
same,Global Rating % Reduction from baseline corrected for placebo,irritable bowel syndrome [2]; [5],2%
same,Loose Stool % Reduction from baseline corrected for placebo,irritable bowel syndrome [2]; [5],14%
same,Pain Score % Reduction from baseline corrected for placebo,irritable bowel syndrome [2]; [5],1%
same,Total AE % of patients reporting AEs corrected for placebo,irritable bowel syndrome [2]; [5],15%
same,Urgency % Reduction from baseline corrected for placebo,irritable bowel syndrome [2]; [5],27%
same,Vision % of patients reporting AEs corrected for placebo,irritable bowel syndrome [2]; [5],3.3%
same,Constipation % of patients reporting AEs,irritable bowel syndrome [2]; [5],15.2%
same,Dry Mouth % of patients reporting AEs,irritable bowel syndrome [2]; [5],28.5%
same,Global Rating % Reduction from baseline,irritable bowel syndrome [2]; [5],31%
same,Loose Stool % Reduction from baseline,irritable bowel syndrome [2]; [5],47%
same,Pain Score % Reduction from baseline,irritable bowel syndrome [2]; [5],39%
same,Total AE % of patients reporting AEs,irritable bowel syndrome [2]; [5],40%
same,Urgency % Reduction from baseline,irritable bowel syndrome [2]; [5],50%
same,Vision % of patients reporting AEs,irritable bowel syndrome [2]; [5],3.3%
same,key measures of Pain Score and Global Rating,irritable bowel syndrome [2]; [7],no effects were seen
same,number of adverse effects,irritable bowel syndrome [2]; [7],marked increase with dose
same,efficacy measures of Loose Stool and Urgency,"irritable bowel syndrome [2]; both controlled release od studies (Clinical Studies 1 and 2), higher doses",improvements
